According to patent US20250326866A1, “TRANSFERRIN RECEPTOR TARGETING PEPTIDE OLIGONUCLEOTIDE COMPLEXES AND METHODS OF USE THEREOF” (Blaze Bioscience, Inc., priority 2021, published 2025):

Tested on: CRE-driven luciferase
Assay: CRE-luciferase reporter mice, in vivo brain luminescence
Conditions: 4 hours after IP 1.68 mg rolipram and 0.84 mg forskolin given together
From the text: Transgenic mice expressing firefly luciferase under the control of a cyclic AMP response element (CRE) can be used. Under conditions of elevated cyclic AMP (cAMP) or other mechanisms that activate the transcription factor CRE Binding Protein 1 (CREB), cells in these mice can express luciferase, which can be measured in whole animal luminescence instrumentation (IVIS imager) after IV dosage with a luciferin formulated for animal use. Mice can be validated to express the transgene under proper response element control by dosing these mice with forskolin and rolipram, two drugs that stimulate neuronal cAMP production and inhibit its degradation (respectively). […]
Under conditions of elevated cyclic AMP (cAMP) or other mechanisms that activate the transcription factor CRE Binding Protein 1 (CREB), cells in these mice express luciferase, which are measured in whole animal luminescence instrumentation (IVIS imager) after IV dosage with a luciferin formulated for animal use. […]
Luminescence was measured in anesthetized mice on a Xenogen IVIS instrument with a 1 min exposure. […] For the test peptides for comparison, identical regions of interest encompassing the entire brain were draw and quantified using LivingImage software (version 4.0, PerkinElmer, FIG. 16). […]
Transgenic Mice were first dosed with luciferin and luminescence was measured (“unstimulated”).

SMILES: COc1ccc(C2CNC(=O)C2)cc1OC1CCCC1 (stereo not shown) [rolipram]
- CRE-Luc brain luminescence, positive control: high levels of luminescence
